Data reported in patent US5726319A, “Biphenyl substituted dipeptide analogs promote release of growth hormone” (Merck & Co., Inc., priority 1995, dated 1998).
Structures can show the parent of a compound that is named as a salt.

These compounds were tested on rat pituitary cells (assay: growth hormone secretion in rat pituitary cell cultures (GH release, RIA)). Conditions: 0.25 h; GH release from cultured rat anterior pituitary cells, 15 min incubation at 37° C., rat GH measured by double antibody RIA; read-out: ED50 (the source's name).
Type: cell-based
Protocol: The bioassay employed for the determination of growth hormone secretion in rat pituitary cell cultures has been previously described--Cheng, K.; Chan, W. W.-S; Barreto, A.; Convey, E. M.; Smith, R. G. Endocrinology 124: 2791-2798 (1989)--and is summarized here: The Wistar male rats (150-200 grams) were obtained from Charles River Laboratories (Wilmington, Mass). Rats were maintained at a constant temperature (25° C.) on a 14-hr light, 10-hr dark cycle. Rat chow and water were available ad libitum. The animals were sacrificed by decapitation and anterior lobes of the pituitary quickly removed. Rat pituitary cells were isolated from pituitaries by enzymatic digestion with 0.2% collagenase and 0.2% hyaluronidase in Hank's Balanced Salt Solution. For culture, the cells were suspended in culture medium and adjusted to 1.5×10^5 cells/ml, and 1.0 ml of this suspension was placed in each well of a 24-well tray (Costar, Cambridge, Mass.). Cells were maintained in a humidified 5% CO2 -95% air atmosphere at 37° C. for 3 to 4 days. The culture medium consisted of DMEM containing 0.37% NaHCO3, 10% horse serum, 2.5% fetal bovine serum, 1% non-essential amino acids, 1% glutamine, 1% nystatin, and 0.1% gentamycin. On the day of an experiment, cells were washed twice 11/2 hrs prior to and once more immediately before the start of the experiment with the above culture medium containing 25 mM HEPES, pH 7.4. GH release was initiated by adding 1 ml of fresh medium containing test agents to each well in quadruplicate. Incubation was carded out at 37° C. for 15 min. After incubation, medium was removed and centrifuged at 2,000×g for 15 min to remove any cellular material. The supernatant fluid was removed and assayed for GH content. Rat GH in culture medium was measured by a double antibody RIA procedure using materials obtained from Dr. A. F. Parlow (Harbor-UCLA medical Center, Torrance, Calif.) and expressed in terms of the standard rat GH RP-2. ED50 values for test compounds were computed by fitting a four-parameter logistic function to the dose-response curve. Least squares estimates of the four-parameter logistic function coefficients and their variances were derived using the iterative algorithm described by Bates and Watts.
Compound CNC(=O)Nc1ccccc1-c1ccc(CNC(=O)[C@@H](Cc2c[nH]c3ccccc23)NC(=O)CC(C)(C)N)cc1 [Example 15, (R)-α-[(3-Amino-3-methyl-1-oxobutyl)amino]-N-[[2'-[[(methylamino)carbonyl]amino][1,1'-biphenyl]-4-yl]-methyl]-1H-indole-3-propanamide, trifluoroacetate] has an EC50 of over 500 nM. For CC(C)(N)C(=O)N[C@H](Cc1c[nH]c2ccccc12)C(=O)NCc1ccc(-c2ccccc2NC(=O)NCCO)cc1 [Example 16, (R)-α-[(2-Amino-2-methyl-1-oxopropyl)amino]-N-[[2'-[[(2-hydroxyethylamino)carbonyl]amino][1,1'-biphenyl]-4-yl]-methyl]-1H-indole-3-propanamide, trifluoroacetate], the EC50 was over 500 nM.

Same assay, conditions: GH release from cultured rat anterior pituitary cells, 15 min incubation at 37° C., rat GH measured by double antibody RIA; read-out: ED50 (the source's name)
In the case of CN(Cc1ccc(-c2ccccc2-c2nnn[nH]2)cc1)C(=O)[C@@H](CCc1ccccc1)NC(=O)CCC(C)(C)N.O=C(O)C(F)(F)F [Example 11, (R)-α-[(4-Amino-4-methyl-1-oxopentyl)amino]-N-methyl-N-[[2'-(1H-tetrazol-5-yl)[1,1'-biphenyl]-4-yl]methyl]benzenebutan amide, trifluoroacetate], the EC50 is reported as under 500 nM. CNC(=O)NCc1ccccc1-c1ccc(CN(C)C(=O)[C@@H](CCc2ccccc2)NC(=O)CCC(C)(C)N)cc1.O=C(O)C(F)(F)F [Example 12] showed an EC50 of under 500 nM. Work on CC(C)(N)CC(=O)N[C@H](COCc1ccccc1)C(=O)NCc1ccc(-c2ccccc2-c2nnn[nH]2)cc1.O=C(O)C(F)(F)F [Example 28, (R)-α-[(3-Amino-3-methyl-1-oxybutyl)amino]-N-[[2'-(1H-tetrazol-5-yl)-[1,1'-biphenyl]-4-yl]methyl]-3-[(phenylmethyl)oxy]propanamide, trifluoracetate] yielded an EC50 of over 500 nM. Work on CCN(Cc1ccc(-c2ccccc2-c2nnn[nH]2)cc1)C(=O)[C@@H](CCc1ccccc1)NC(=O)CC(C)(C)N.O=C(O)C(F)(F)F [Example 19, (R)-α-[(3-Amino-3-methyl-1-oxybutyl)amino]-N-ethyl-N-[[2'-(1H-tetrazol-5-yl)-[1,1'-biphenyl]-4-yl]methyl]benzenebutanamide, trifluoroacetate] yielded an EC50 of over 500 nM. “(R)-α-[(2-Amino-2-methyl)-1-oxopropyl]amino-N -methyl-N -[2'-(1H -tetrazol-5-yl)[1,1'-biphenyl]-4-yl]butanamide, trifluoroacetate [Example 34]” was tested, and the EC50 was under 500 nM. CNC(=O)Nc1ccccc1-c1ccc(N(C)C(=O)[C@@H](CCc2ccccc2)NC(=O)C(C)(C)N)cc1.O=C(O)C(F)(F)F [Example 33] gave an EC50 of over 500 nM. With CCN(Cc1ccc(-c2ccccc2CNC(=O)NC)cc1)C(=O)[C@@H](CCc1ccccc1)NC(=O)C(C)(C)N.O=C(O)C(F)(F)F [Example 20, (R)-α-[(2-Amino-2-methyl-1-oxypropyl)amino]-N-ethyl-N-[[(2'-[((methylamino)carbonyl)aminomethyl])-[1,1'-biphenyl]-4-yl]methyl]benzenebutanamide,trifluoroacetate] the EC50 was under 500 nM. CN(Cc1ccc(-c2ccccc2C#N)cc1)C(=O)[C@@H](CCc1ccccc1)NC(=O)C(C)(C)N.O=C(O)C(F)(F)F [Example 7b, (R)-α-[(2-amino-2-methyl-1-oxypropyl)amino]-N-[[2'-cyano-[1,1'-biphenyl]-4-yl]methyl]-N-methyl-benzenebutanamide trifluoroacetate] gave an EC50 of over 500 nM.
